Results published in patent publication US7923025B2, “Pharmaceutical composition for oral use with improved absorption” (Astellas Pharma Inc., priority 2003, dated 2011).

Experiment: Gastrointestinal absorption of insulin, rat intestinal loop, plasma glucose (Experiment 1)
Assay type: in vivo, Wistar male rats
Procedure: Then 0.25 ml blood was collected from the jugular vein 0, 0.5, 1, 1.5, 2 and 3 hours after administration and the plasma glucose concentration was determined. The reduction in the plasma glucose concentration (D, % of initial*h) up to three hours after administration was calculated with the plasma glucose concentration before administration being 100. D was calculated by subtracting the plasma glucose area under concentration (% of initial*h) up to 3 hours after administration from the AUC with administration of normal saline only.
On the other hand, by way of comparison, a liquid of 6 mg bovine insulin dissolved in 20 ml normal saline liquid was administered to a large intestine loop in an amount corresponding to 600 μg/kg insulin, or as the control, 2 ml normal saline were administered to a large intestine loop and the plasma glucose concentration was determined as described above (Glucose CII Test Wako, Wako Pure Chemical Industries, Ltd.).

## Comparison (E-SD not administered): 6 mg bovine insulin dissolved in 20 ml normal saline, without E-SD
Rat intestinal loop, up to 3 hours after administration
  AUC (plasma glucose): 368.84 ± 63.19 % of initial*h
Up to 3 hours, AUC with normal saline only minus AUC
  D (reduction in the plasma glucose concentration): 13.00 % of initial*h
